Consider 2 molecules from patent publication US20150299233A1, “COMPOSITIONS AND METHODS COMPRISING RHENIUM FOR THE TREATMENT OF CANCERS” (Massachusetts Institute of Technology, priority 2014, published 2015).

Where two headings read alike, the source gives them in different places.

The test system of experiment [1] is A549 cells. The experiment in a line: Intracellular ROS assay (DCFH-DA, flow cytometry). In kind it is cell-based, human. The note with it: 1, 2, shikonin 20 μM for 12 h; H2O2 1 mM for 1 h. The method, then: Characterization of Necroptotic Features. Having established that necrosome formation is a determinant of 1 and 2 activity, additional studies were performed to understand the cascade of events leading from necrosome formation to cell death. Necrosomes generate abnormally high levels of mitochondrial ROS, leading to ATP depletion and eventual degradation of the mitochondrial membrane potential. With this fact in mind, intracellular ROS production was quantified by flow cytometry using 6-carboxy-2′,7′-dichlorodihydrofluorescein diacetate (DCFH-DA), a well-established ROS indicator.
In FIG. 2: (A) Representative histograms displaying the green fluorescence emitted by DCFH-DA-stained A549 cells (i) and A549 cells treated with 1(20 μM for 12 h) (iii) or 1 (20 μM for 12 h) with nectrostatin-1 (60 μM for 12 h) (ii). (B) Representative histograms displaying the green fluorescence emitted by DCFH-DA-stained A549 cells (i) and A549 cells treated with 2 (20 μM for 12 h) (iii) or 2 (20 μM for 12 h) with nectrostatin-1 (60 μM for 12 h) (ii). (C) Representative histograms displaying the green fluorescence emitted by DCFH-DA-stained A549 cells (i) and A549 cells treated withH2O2 (1mM for 1 h) (iii). (D) Representative histograms displaying the green fluorescence emitted by DCFH-DA-stained A549 cells (i) and A549 cells treated with shikonin (20 μM for 12 h) (iii).
Intracellular ROS Assay. Untreated and treated A549 cells (1.5×10^6 cells/well) grown in six-well plates were incubated with 6-carboxy-2′,7′-dichlorodihydrofluorescein diacetate (20 μM) for 30 min. The cells were then washed with PBS (1 mL x 3), harvested, and analyzed by using a FACSCalibur-HTS flow cytometer (BD Biosciences) (20 000 events per sample were acquired). The FL1 channel was used to assess intracellular ROS levels. Cell populations were analyzed using the FlowJo software (Tree Star).
A general note: In flow cytometry, cells or beads pass a laser one at a time.

For experiment [2], the system named is MRC-5. The experiment in a line: MTT cytotoxicity assay, MRC-5 normal lung fibroblasts. In kind it is cell-based, human. As to conditions: Table A; average of three independent determinations; read-out: IC50 MRC5 (lung normal).
Protocol: (§1) In vitro toxicity of the rhenium (v) oxo complexes, 1 and 2 towards a panel of human cell lines was determined using the colorimetic MTT [[3-(4,5-dimethylithiazol-2-yl)-2,5-diphenyltetrazolium bromide] assay.
(§2) The in vitro effect of rhenium(V) oxo complexes 1 and 2 toward a panel of human cell lines was determined by the colorimetric MTT [3-(4,5-dimethylthiazol-2-yl)-2,5-diphenyltetrazolium bromide] assay. […] The IC50 values, or concentration required to induce 50% cell death, were derived from dose—response curves and are summarized in Table 1.
(§3) Cells (2×10^3 cells/well) were seeded in a 96-well plate. […] 1 and 2 were prepared as 10 mM solutions in DMSO and diluted using media. The final concentration of DMSO in each well was 0.5%, and this amount was also present in the untreated control. After 72 h, the medium was removed, 200 μL of a 0.4 mg/mL solution of MTT in DMEM, RPMI, or McCoy's 5A was added, and the plate was incubated for an additional 1-2 h. The DMEM/MTT, RPMI/MTT, or McCoy's 5A/MTT mixture was aspirated, and 200 μL of DMSO was added to dissolve the resulting purple formazan crystals. The absorbance of the solution wells was read at 550 nm. Absorbance values were normalized to DMSO-containing control wells and plotted as the concentration of test compound versus % cell viability. IC50 values were interpolated from the resulting dose-dependent curves. The reported IC50 values are the average from at least three independent experiments, each of which consisted of six replicates per concentration level.
Experiment [3] deals with cisplatin-sensitive cells (A2780). The experiment in a line: MTT cytotoxicity assay, A2780 cells. In kind it is cell-based, human. The note with it: Table A; average of three independent determinations; read-out: IC50 A2780 (ovarian). On the technique in general: Tetrazolium assays rely on reduction of a dye to a coloured formazan, in cell work by metabolically active cells.

Experiment [4] deals with MCF-7 (breast adenocarcinoma). Put plainly: MTT cytotoxicity assay, MCF-7 cells. In kind it is cell-based, human. The note with it: Table 2; cisplatin-resistant cell line; 72 h exposure.
The test system of experiment [5] is PC-3 (prostate adenocarcinoma). Put plainly: MTT cytotoxicity assay, PC-3 cells. In kind it is cell-based, human. The note with it: Table 2; cisplatin-resistant cell line; 72 h exposure.
Experiment [6] relates to DU 145 (prostate carcinoma). The experiment in a line: MTT cytotoxicity assay, DU 145 cells. In kind it is cell-based, human. The note with it: Table 2; cisplatin-resistant cell line; 72 h exposure; read-out: IC50 DU 14S prostate carcinoma.
For experiment [7], the system named is MDA-MB-231 (breast adenocarcinoma). The experiment in a line: MTT cytotoxicity assay, MDA-MB-231 cells. In kind it is cell-based, human. The note with it: Table 2; cisplatin-resistant cell line; 72 h exposure; read-out: IC50 MDA-M8-231 breast adenocarcinoma.
Experiment [8] deals with cisplatin-resistant ovarian carcinoma cells (A2780CP70). The experiment in a line: MTT cytotoxicity assay, A2780CP70 cells. In kind it is cell-based, human.
The test system of experiment [9] is MRC-5. The note with it: Table 1; 72 h exposure; value taken from ref 4S; read-out: IC50 MRC-5 lung fibroblast; cited from earlier work.
Experiment [10] concerns HT-29 (colorectal adenocarcinoma). The experiment in a line: MTT cytotoxicity assay, HT-29 cells. In kind it is cell-based, human. The note with it: Table 2; cisplatin-resistant cell line; 72 h exposure.
Protocol: Cytotoxicity MTT Assay. […] Cells (2×10^3 cells/well) were seeded in a 96-well plate. […] The final concentration of DMSO in each well was 0.5%, and this amount was also present in the untreated control. After 72 h, the medium was removed, 200 μL of a 0.4 mg/mL solution of MTT in DMEM, RPMI, or McCoy's 5A was added, and the plate was incubated for an additional 1-2 h. The DMEM/MTT, RPMI/MTT, or McCoy's 5A/MTT mixture was aspirated, and 200 μL of DMSO was added to dissolve the resulting purple formazan crystals. The absorbance of the solution wells was read at 550 nm. Absorbance values were normalized to DMSO-containing control wells and plotted as the concentration of test compound versus % cell viability. IC50 values were interpolated from the resulting dose-dependent curves. The reported IC50 values are the average from at least three independent experiments, each of which consisted of six replicates per concentration level.
For the next experiment, the system named is NTERA-2. Put plainly: MTT cytotoxicity assay, NTERA-2 cells. In kind it is cell-based, human. As to conditions: Table 1; 72 h exposure; ± standard deviation; read-out: IC50 NTERA-2 testis carcinoma.
In experiment [11] the test system is A549 cells. Put plainly: MTT cytotoxicity assay, A549 cells. In kind it is cell-based, human.
Protocol: as §1, §2, §3
In a further experiment the test system is confluent A549 cells. Put plainly: MTT cytotoxicity assay, confluent A549 cells. In kind it is cell-based, human. As to conditions: Table 2; confluent cells; 72 h exposure; read-out: IC50 A549 (confluent) lung carcinoma.
The test system of experiment [12] is cisplatin-sensitive cells (A2780). As to conditions: Table 1; 72 h exposure; value taken from ref 4S; read-out: IC50 A2780 ovarian carcinoma; cited from earlier work.
Experiment [13] deals with HeLa cervical adenocarcinoma cells. The experiment in a line: MTT cytotoxicity assay, HeLa cells. In kind it is cell-based, human.
The subject of experiment [14] is U2OS. The note with it: Table 1; 72 h exposure; value taken from ref 4S; read-out: IC50 U2OS bone osteosarcoma; cited from earlier work.
Experiment [15] relates to U2OS. The experiment in a line: MTT cytotoxicity assay, U2OS cells. In kind it is cell-based, human. As to conditions: Table A; average of three independent determinations; read-out: IC50 U2OS (bone).

As for `OO` [Compound H2O2, H2O2, reference compound], in the experiment on A549 cells [1], the “intracellular ROS versus untreated control cells” value was “significantly higher levels of measurable ROS”.

In the case of `N.N.[Cl][Pt][Cl]` [cisplatin, reference compound], the 50% inhibitory concentration (IC50) (in general, the concentration that inhibits the measured activity by half) with MRC-5 [2] was 11.1 ± 1.33 µM; in experiment [3], 1.41 ± 0.037 µM; in experiment [4], 9.74 ± 0.537 µM; in [5] it was 10.2 ± 0.919 µM; in experiment [6], above 100 µM; in experiment [7], 43.6 ± 7.07 µM. The half-maximal inhibitory concentration (IC50) in experiment [8] (Table 1, 72 h exposure, ± standard deviation, read-out: IC50 A2780CP70 ovarian carcinoma) was 8.42 ± 0.205 µM; in [8] (Table A, average of three independent determinations, read-out: IC50 A280CP70 (ovarian)), 8.42 ± 0.205 µM; with MRC-5 [9], 5.3 ± 0.6 µM; in experiment [10], 29.6 ± 1.33 µM; in the experiment with NTERA-2 it was 0.385 ± 0.049 µM; in the experiment with A549 cells [11] (Table 1, 72 h exposure, ± standard deviation, read-out: IC50 A549 lung carcinoma), 3.23 ± 0.467 µM. The IC50 was 2.74 ± 0.006 µM in the experiment with A549 cells [11] (Table A, average of three independent determinations, read-out: IC50 A549 (lung)); 9.42 ± 1.94 µM with confluent A549 cells; 0.7 ± 0.2 µM in experiment [12]; 4.1 ± 0.113 µM in [13] (Table 1, 72 h exposure, ± standard deviation, read-out: IC50 HeLa cervical adenocarcinoma); 4.1 ± 0.011 µM in experiment [13] (Table A, average of three independent determinations, read-out: IC50 HeLa (cervical)); 4.6 ± 0.6 µM with U2OS [14]. In the experiment on U2OS [15], the IC50 came out at 4.6 ± 0.6 µM.
